Literature values as cited in article PMC12623819 (Scientific Reports, 2025).

Key:
[1] = tested on: cell surface-expressed nectin-4
[2] = tested on: nectin-4-expressing cells; details: in vitro

## enfortumab vedotin: ADC comprising a human nectin-4 antibody conjugated to the microtubule-disrupting agent MMAE
[1]
  binding to cell surface-expressed nectin-4: high affinity
[2]
  induction of cell death: induce cell death in a dose-dependent manner
